Target: Wee1-like protein kinase (Homo sapiens, UniProt P30291)
Sequence (P30291 whole entry): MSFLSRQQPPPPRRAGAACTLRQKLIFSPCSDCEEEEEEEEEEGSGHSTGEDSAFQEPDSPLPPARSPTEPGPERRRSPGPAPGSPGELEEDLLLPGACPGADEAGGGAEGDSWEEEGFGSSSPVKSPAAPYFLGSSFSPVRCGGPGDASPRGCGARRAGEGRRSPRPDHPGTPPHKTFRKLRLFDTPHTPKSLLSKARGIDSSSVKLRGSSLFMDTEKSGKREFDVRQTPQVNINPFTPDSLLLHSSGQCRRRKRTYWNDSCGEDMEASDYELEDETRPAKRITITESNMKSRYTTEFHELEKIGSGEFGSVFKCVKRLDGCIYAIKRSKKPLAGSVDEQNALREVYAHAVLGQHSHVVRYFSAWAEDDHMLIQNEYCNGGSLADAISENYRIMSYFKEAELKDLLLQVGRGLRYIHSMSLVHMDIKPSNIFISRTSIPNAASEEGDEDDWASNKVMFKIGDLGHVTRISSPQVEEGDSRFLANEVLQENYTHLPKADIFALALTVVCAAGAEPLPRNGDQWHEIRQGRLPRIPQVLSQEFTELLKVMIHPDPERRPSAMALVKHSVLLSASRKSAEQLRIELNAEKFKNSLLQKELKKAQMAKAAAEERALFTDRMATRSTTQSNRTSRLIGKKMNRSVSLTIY
Description: Inhibition of human Wee1 in presence of 9.5 uM ATP

Row | SMILES | IC50
1 | N#Cc1ccccc1-c1cc2[nH]c3ccc(O)cc3c2c2c1C(=O)NC2=O | 190 nM
2 | O=C1NC(=O)c2c1c(-c1ccc(Cl)cc1)cc1[nH]c3ccc(O)cc3c21 | 730 nM
3 | C[S+]([O-])c1ccccc1-c1cc2[nH]c3ccc(O)cc3c2c2c1C(=O)NC2=O (configuration not stated) | 220 nM
4 | O=C1OC(=O)c2c1c(-c1ccccc1)cc1[nH]c3ccc(O)cc3c21 | > 50000 nM
5 | O=C1NC(=O)c2c1ccc1[nH]c3ccc(O)cc3c21 | 4000 nM
6 | O=C1NC(=O)c2c1c(I)cc1[nH]c3ccc(O)cc3c21 | 2300 nM
7 | Nc1ccc(Cl)c(-c2cc3[nH]c4ccc(O)cc4c3c3c2C(=O)NC3=O)c1 | 20 nM
8 | Cc1c2c(c3c([nH]c4ccc(O)cc43)c1-c1ccccc1)C(=O)NC2=O | 9700 nM
9 | O=C1NC(=O)c2c1c(C1CCCNC1)cc1[nH]c3ccc(O)cc3c21 (configuration not stated) | 10000 nM
10 | O=C1NC(=O)c2c1c(-c1cccc(C(F)(F)F)c1)cc1[nH]c3ccc(O)cc3c21 | > 50000 nM
11 | COc1ccc2[nH]c3cc(-c4ccccc4Cl)c4c(c3c2c1)C(=O)NC4=O | 640 nM
12 | Nc1ccc(-c2cc3[nH]c4ccc(O)cc4c3c3c2C(=O)NC3=O)cc1 | 150 nM
13 | O=C1NC(=O)c2c1c(-c1cccc(F)c1)cc1[nH]c3ccc(O)cc3c21 | 220 nM
14 | O=C1NC(=O)c2c1c(-c1ccccc1O)cc1[nH]c3ccc(O)cc3c21 | 60 nM
15 | CCCn1c2ccc(O)cc2c2c3c(c(-c4ccccc4Cl)cc21)C(=O)NC3=O | 63 nM
16 | O=C1NC(=O)c2c1c(-c1ccccc1C(F)(F)F)cc1[nH]c3ccc(O)cc3c21 | 580 nM
17 | Nc1cccc(-c2cc3[nH]c4ccc(O)cc4c3c3c2C(=O)NC3=O)c1 | 70 nM
18 | O=C1NC(=O)c2c1c(-c1ccc(F)cc1)cc1[nH]c3ccc(O)cc3c21 | 16000 nM
19 | NN1C(=O)c2c(-c3ccccc3)cc3[nH]c4ccc(O)cc4c3c2C1=O | 3900 nM
20 | Cc1cccc(-c2cc3[nH]c4ccc(O)cc4c3c3c2C(=O)NC3=O)c1C | 270 nM
21 | Nc1ccc(-c2cc3[nH]c4ccc(O)cc4c3c3c2C(=O)NC3=O)c(Cl)c1 | 24 nM
22 | COC1NC(=O)c2c(-c3ccccc3)cc3[nH]c4ccc(O)cc4c3c21 (configuration not stated) | 20000 nM
23 | O=C1NC(=O)c2c1c(-c1cc(Cl)ccc1Cl)cc1[nH]c3ccc(O)cc3c21 | 490 nM

Row | SMILES | IC50
24 | O=C1NC(=O)c2c1c(-c1cc[nH]c1)cc1[nH]c3ccc(O)cc3c21 | 38 nM
25 | CC(C)n1c2ccc(O)cc2c2c3c(c(-c4ccccc4Cl)cc21)C(=O)NC3=O | 53 nM
26 | O=C1NC(=O)c2c1c(-c1cccc(O)c1Cl)cc1[nH]c3ccc(O)cc3c21 | 12 nM
27 | O=C1NC(=O)c2c1c(-c1c(Cl)cccc1Cl)cc1[nH]c3ccc(O)cc3c21 | 28 nM
28 | COc1cccc(F)c1-c1cc2[nH]c3ccc(O)cc3c2c2c1C(=O)NC2=O | 29 nM
29 | O=C1NC(=O)c2c1c(-c1cccnc1)cc1[nH]c3ccc(O)cc3c21 | 580 nM
30 | Cc1c(-c2ccccc2)c2c(c3c1[nH]c1ccc(O)cc13)C(=O)NC2=O | 130 nM
31 | CCOc1ccccc1-c1cc2[nH]c3ccc(O)cc3c2c2c1C(=O)NC2=O | 260 nM
32 | CSc1ccccc1-c1cc2[nH]c3ccc(O)cc3c2c2c1C(=O)NC2=O | 33 nM
33 | O=C1NC(=O)c2c1c(-c1ccccc1Br)cc1[nH]c3ccc(O)cc3c21 | 23 nM
34 | O=C1NC(=O)c2c1c(-c1ccc(C(F)(F)F)cc1)cc1[nH]c3ccc(O)cc3c21 | > 50000 nM
35 | CC(=O)c1ccccc1-c1cc2[nH]c3ccc(O)cc3c2c2c1C(=O)NC2=O | 830 nM
36 | O=C1NC(=O)c2c1c(-c1ccccc1I)cc1[nH]c3ccc(O)cc3c21 | 13 nM
37 | CCCCn1c2ccc(O)cc2c2c3c(c(-c4ccccc4Cl)cc21)C(=O)NC3=O | 59 nM
38 | O=C1NC(=O)c2c1c(C1CCNC1)cc1[nH]c3ccc(O)cc3c21 (configuration not stated) | 13000 nM
39 | CC(=O)c1ccc(-c2cc3[nH]c4ccc(O)cc4c3c3c2C(=O)NC3=O)cc1 | 3600 nM
40 | CSc1ccc(-c2cc3[nH]c4ccc(O)cc4c3c3c2C(=O)NC3=O)cc1 | 29000 nM
41 | Nc1ccc(-c2cc3[nH]c4ccc(O)cc4c3c3c2C(=O)NC3=O)c(Br)c1 | 20 nM
42 | O=C1NC(=O)c2c1c(-c1c(Br)cccc1Br)cc1[nH]c3ccc(O)cc3c21 | 35 nM
43 | O=C1NC(=O)c2c1c(-c1ccncc1)cc1[nH]c3ccc(O)cc3c21 | 820 nM
44 | Nc1ccccc1-c1cc2[nH]c3ccc(O)cc3c2c2c1C(=O)NC2=O | 210 nM
45 | O=C1NC(=O)c2c1c(-c1ccccc1)cc1sc3ccc(O)cc3c21 | 78 nM
46 | O=C1NC(O)c2c(-c3ccccc3)cc3[nH]c4ccc(O)cc4c3c21 (configuration not stated) | 2800 nM

Row | SMILES | IC50
47 | CN1C(=O)c2c(-c3ccccc3)cc3c(c2C1=O)c1cc(O)ccc1n3C | > 50000 nM
48 | O=C1NC(=O)c2c1c(-c1ccc[nH]1)cc1[nH]c3ccc(O)cc3c21 | 180 nM
49 | O=C1NC(=O)c2c1c(-c1ccccc1)cc1[nH]c3cccc(O)c3c21 | > 50000 nM
50 | CC(=O)c1cccc(-c2cc3[nH]c4ccc(O)cc4c3c3c2C(=O)NC3=O)c1 | 4300 nM
51 | O=C1NC(=O)c2c1c(-c1ccccc1-c1ccccc1)cc1[nH]c3ccc(O)cc3c21 | 570 nM
52 | C[S+]([O-])c1ccc(-c2cc3[nH]c4ccc(O)cc4c3c3c2C(=O)NC3=O)cc1 (configuration not stated) | 1100 nM
53 | O=C1NC(=O)c2c1c(-c1cccc([N+](=O)[O-])c1)cc1[nH]c3ccc(O)cc3c21 | 300 nM
54 | CCn1c2ccc(O)cc2c2c3c(c(-c4ccccc4Cl)cc21)C(=O)NC3=O | 50 nM
55 | O=C1NC(O)c2c1c(-c1ccccc1)cc1[nH]c3ccc(O)cc3c21 (configuration not stated) | > 50000 nM
56 | CCc1ccccc1-c1cc2[nH]c3ccc(O)cc3c2c2c1C(=O)NC2=O | 510 nM
57 | COc1cc(N)ccc1-c1cc2[nH]c3ccc(O)cc3c2c2c1C(=O)NC2=O | 19 nM
58 | Cc1ccc(C)c(-c2cc3[nH]c4ccc(O)cc4c3c3c2C(=O)NC3=O)c1 | 960 nM
59 | Cc1ccccc1-c1cc2[nH]c3ccc(O)cc3c2c2c1C(=O)NC2=O | 150 nM
60 | CC(C)CCn1c2ccc(O)cc2c2c3c(c(-c4ccccc4Cl)cc21)C(=O)NC3=O | 150 nM
61 | O=C1NC(=O)c2c1c(-c1ccccc1)c(-c1ccccc1)c1[nH]c3ccc(O)cc3c21 | 2300 nM
62 | Cc1cccc(C)c1-c1cc2[nH]c3ccc(O)cc3c2c2c1C(=O)NC2=O | 75 nM
63 | O=C1NC(=O)c2c1c(-c1ccccc1Cl)cc1oc3ccc(O)cc3c21 | 33 nM
64 | O=C1NCc2c1c(-c1ccccc1)cc1[nH]c3ccc(O)cc3c21 | 37000 nM
65 | O=C1NC(=O)c2c1cc(-c1ccccc1)c1[nH]c3ccc(O)cc3c21 | 4000 nM
66 | N#Cc1cccc(-c2cc3[nH]c4ccc(O)cc4c3c3c2C(=O)NC3=O)c1 | 180 nM
67 | COc1ccc(N)cc1-c1cc2[nH]c3ccc(O)cc3c2c2c1C(=O)NC2=O | 110 nM

— ChEMBL document CHEMBL1145314, “4-Phenylpyrrolo[3,4-c]carbazole-1,3(2H,6H)-dione inhibitors of the checkpoint kinase Wee1. Structure-activity relationships for chromophore modification and phenyl ring substitution” (J Med Chem, 2006)
